Assay results reported in patent US9789066B2, “Process for making tablet using radiofrequency and lossy coated particles” (JOHNSON & JOHNSON CONSUMER INC., priority 2014, dated 2017).

Experiment: Dielectric measurement (e′, e″, Q value) by Slotted Line Method at 27 MHz
Type: physicochemical
Conditions: raw material
Excerpt: The property of permittivity is the measure of the resistance to forming an electric field. For purposes of comparing materials in air, it is often convenient to describe the permittivity of material in air where the permittivity is more specifically called “relative permittivity” or ? r. This is a complex number represented by the following equation: ? r=e'-je'' where e' (the real portion of the complex number) is the dielectric constant (energy storage) and e'' (the imaginary portion of the complex number) is the dielectric loss or dissipation factor (energy dissipated as heat). The ratio of dielectric loss (e'') over the dielectric constant (e') is called the loss tangent (tan δ) or power factor. […] The Q value is affected by physical and chemical properties such as density (porosity/particle size), moisture (conductivity), temperature, and molecular polarizability. The measurements obtained by this method can eliminate the need to measure and evaluate these properties independently. […] The Q values were measured using a HP […] Slotted Line as sample holder (carriage removed) connected to Agilent […] to ports A and B (transmission mode). […] This process is referred to as the “Slotted Line Method.” Unless otherwise stated, the Slotted line method was used for the calculation of e', e'', and Q value herein with the frequency range set to 26-28 MHz (31 points resolution) and values of e' and e'' were recorded from the 27 MHz data point.

For `OC[C@@H](O)[C@@H](O[C@H]1O[C@H](CO)[C@@H](O)[C@H](O)[C@H]1O)[C@H](O)[C@@H](O)CO` [Maltitol (SweetPearl DC300), Maltitol], the “Loss Tangent” value was 0.0022, the “e′” value was 1.6214 and the “e″” value was 0.0035.
